Test results reported in publication PMC7156724, “Potent BRD4 inhibitor suppresses cancer cell-macrophage interaction” (Nature Communications, 2020).
Where “and” joins values, the source holds several entries; their conditions need not be identical. Identical values can stand only once.

Key:
[1] = Equilibrium dialysis assay, human plasma
Experimental: The concentration was calculated using the peak area ratio of analyte and internal […]
The results were calculated by the following equations:
% Unbound = 100 *FC / TC, % Bound = 100 * (1-FC / TC)
% Recovery = 100 * (FC + TC) / T0
TC = Total compound concentration as determined by the calculated concentration on the retentate side of the membrane
FC = Free compound concentration as determined by the calculated concentration on the dialysate side of the membrane […]
Equation of first order kinetics: […]
8. Equilibrium dialysis assay. Binding with plasma protein and recovery rate of NHWD-870 were performed with human, CD-1 mouse and SD rat plasma as […]
described 2. […] The concentration was […]
calculated using the peak area ratio of analyte and internal standard. The results were calculated by the following equations: % Unbound = 100 *FC / TC, % Bound = 100 * (1-FC / TC); % Recovery = 100 * (FC + TC) / T0; TC = Total compound concentration as determined by the calculated concentration on the retentate side of the membrane; FC = Free compound concentration as determined by the (1 picture or pasted object on this page, not shown here) […]
calculated concentration on the dialysate side of the membrane; T0 = To t a l compound concentration as determined before dialysis. […]
10. hERG channel assay. […]
HEK293 cell line stably

[2] = test system: ES-2 ovarian cancer; experiment: ES-2 ovarian tumor xenograft growth; format: in vivo, mouse
Experimental: 4–6 weeks old female BALB/c nude mice were used for most experiments, with the exception of 6–8 weeks old female C57BL/6 mice were used for B16F10 experiments, and 6–8 weeks old male BALB/c nude mice and SD rats were used for pharmacokinetic experiments. All animals were purchased from Shanghai SIPPR-Bk Lab Animal Co., Ltd. All animals were housed under a regimen of 12 h light/12 h dark cycles and specific pathogen-free conditions. 5×10^6 NCI-H526, ES-2, MDA-MB231, A2780, A375, B16F10, and TMD-8 cells (0.1 ml) were injected subcutaneously into female nude mice. The melanoma patient-derived xenograft model was derived from a human melanoma sample (BRAF, NARS and NF1 wild type, and p53 mutant) removed from a patient in Xiangya Hospital. Surgically removed tumor fragments were implanted subcutaneously into female NSG mice. When the tumors grew to ~1000 mm^3, they were harvested and cryopreserved or immediately re-implanted for expansion or experiments. Mouse body weight and tumor sizes were measured every 3 days. Once the tumors grew to 150–200 mm^3, mice were treated with the compounds as described in the Figures. 1 × 10^6 A2780 cells (1 ml) were injected into the abdominal cavity of nude mice. Ascitic volume and tumor weight were measured by an electronic balance. All the procedures were evaluated and approved by the Institutional Animal Care and Use Committee of Central South University and Yale University.
Supplementary Figure 9. […]
PO, oral administration; QD, once daily; BID, twice daily; D, day. (c,d) Tumor growth curves for ES2 ovarian tumor (c), MDA-MB231 breast tumor (d) bearing mice treated with the indicated compounds for 21 days. Compounds were orally administrated once daily. Data are presented as mean ± SEM from 6 different mice. p values were calculated using two-tailed, unpaired t tests.
**, p<0.01; ***, p<0.001. Source data are provided as a Source Data file. […]

[3] = test system: A375 melanoma cells; experiment: AlamarBlue assay, A375; format: cell-based, human; conditions: for Cellular activity in melanoma cells (A375), alamarBlue: Fig.1g, replicates
Experimental: 3. AlamarBlue assay. AlamarBlue was made by resazurin sodium salt (Sigma, Cat
# 199303) dissolved in PBS.
NCI-H211, MDA-MB231 and A375 cells were plated in 96-well plates at approximately 30% confluence and left overnight to adhere. In the following day, […]
of treatment, 10 μl AlamarBlue reagent (0.3 mg/ml) was added to each well, and after 18h, the florescence intensity in each well was measured using a top-reading fluorescent plate reader with excitation at 530 nm and emission at 590 nm. […]

[4] = ES-2, 1mg/kg p.o. QD x 21D, day 0, group AVG
[5] = ES-2, 1mg/kg p.o. QD x 21D, day 0, individual animals
[6] = ES-2, 1mg/kg p.o. QD x 21D, day 4, group AVG
[7] = ES-2, 1mg/kg p.o. QD x 21D, day 4, individual animals
[8] = ES-2, 1mg/kg p.o. QD x 21D, day 7, group AVG
[9] = ES-2, 1mg/kg p.o. QD x 21D, day 7, individual animals
[10] = ES-2, 1mg/kg p.o. QD x 21D, day 11, group AVG
[11] = ES-2, 1mg/kg p.o. QD x 21D, day 11, individual animals
[12] = ES-2, 1mg/kg p.o. QD x 21D, day 14, group AVG
[13] = ES-2, 1mg/kg p.o. QD x 21D, day 14, individual animals
[14] = ES-2, 1mg/kg p.o. QD x 21D, day 17, group AVG
[15] = ES-2, 1mg/kg p.o. QD x 21D, day 17, individual animals
[16] = ES-2, 1mg/kg p.o. QD x 21D, day 20, group AVG
[17] = ES-2, 1mg/kg p.o. QD x 21D, day 20, individual animals
[18] = ES-2, 3mg/kg p.o. QD x 21D, day 0, group AVG
[19] = ES-2, 3mg/kg p.o. QD x 21D, day 0, individual animals
[20] = ES-2, 3mg/kg p.o. QD x 21D, day 4, group AVG
[21] = ES-2, 3mg/kg p.o. QD x 21D, day 4, individual animals
[22] = ES-2, 3mg/kg p.o. QD x 21D, day 7, group AVG
[23] = ES-2, 3mg/kg p.o. QD x 21D, day 7, individual animals
[24] = ES-2, 3mg/kg p.o. QD x 21D, day 11, group AVG
[25] = ES-2, 3mg/kg p.o. QD x 21D, day 11, individual animals
[26] = ES-2, 3mg/kg p.o. QD x 21D, day 14, group AVG
[27] = ES-2, 3mg/kg p.o. QD x 21D, day 14, individual animals
[28] = ES-2, 3mg/kg p.o. QD x 21D, day 17, group AVG
[29] = ES-2, 3mg/kg p.o. QD x 21D, day 17, individual animals
[30] = ES-2, 3mg/kg p.o. QD x 21D, day 20, group AVG
[31] = ES-2, 3mg/kg p.o. QD x 21D, day 20, individual animals

Cc1nnn(C)c1-c1cnc2c3c4cnn(C)c4ccc3n([C@H](c3ccccc3)C3CCOCC3)c2c1 [NHWD-870]
% Bound ([1]; Human plasma, equilibrium dialysis): 97.5%
fraction unbound ([1]; human, plasma): 0.025
recovery ([1]; human, plasma): 92.8%
% Tumor growth, AVG [2, 4]: 0%
Tumor volume, AVG [2, 4]: 182.834 mm^3
% Tumor growth [2, 5]: 0%
Tumor volume [2, 5]: 161.981 mm^3 and 208.246 mm^3 and 257.236 mm^3 and 142.384 mm^3 and 223.655 mm^3 and 103.5 mm^3
% Tumor growth, AVG [2, 6]: 71.8081%
Tumor volume, AVG [2, 6]: 319.202 mm^3
% Tumor growth [2, 7]: 19.7778% and 126.134% and 74.5915% and 55.5126% and 76.849% and 77.9831%
Tumor volume [2, 7]: 194.017 mm^3 and 470.917 mm^3 and 449.112 mm^3 and 221.425 mm^3 and 395.531 mm^3 and 184.213 mm^3
% Tumor growth, AVG [2, 8]: 143.924%
Tumor volume, AVG [2, 8]: 449.139 mm^3
% Tumor growth [2, 9]: 108.101% and 224.596% and 137.285% and 85.7809% and 134.14% and 173.642%
Tumor volume [2, 9]: 337.084 mm^3 and 675.959 mm^3 and 610.381 mm^3 and 264.522 mm^3 and 523.665 mm^3 and 283.22 mm^3
% Tumor growth, AVG [2, 10]: 266.816%
Tumor volume, AVG [2, 10]: 666.569 mm^3
% Tumor growth [2, 11]: 228.373% and 360.792% and 253.375% and 196.866% and 222.989% and 338.501%
Tumor volume [2, 11]: 531.902 mm^3 and 959.584 mm^3 and 909.007 mm^3 and 422.689 mm^3 and 722.381 mm^3 and 453.85 mm^3
% Tumor growth, AVG [2, 12]: 321.081%
Tumor volume, AVG [2, 12]: 765.856 mm^3
% Tumor growth [2, 13]: 250.605% and 403.815% and 289.634% and 267.746% and 320.675% and 394.009%
Tumor volume [2, 13]: 567.913 mm^3 and 1049.18 mm^3 and 1002.28 mm^3 and 523.611 mm^3 and 940.859 mm^3 and 511.301 mm^3
% Tumor growth, AVG [2, 14]: 435.897%
Tumor volume, AVG [2, 14]: 1001.66 mm^3
% Tumor growth [2, 15]: 362.904% and 591.91% and 468.225% and 329.053% and 437.775% and 425.513%
Tumor volume [2, 15]: 749.817 mm^3 and 1440.88 mm^3 and 1461.68 mm^3 and 610.902 mm^3 and 1202.76 mm^3 and 543.908 mm^3
% Tumor growth, AVG [2, 16]: 569.584%
Tumor volume, AVG [2, 16]: 1249.88 mm^3
% Tumor growth [2, 17]: 729.742% and 506.506% and 450.639% and 539.702% and 621.332%
Tumor volume [2, 17]: 1727.91 mm^3 and 1560.15 mm^3 and 784.021 mm^3 and 1430.72 mm^3 and 746.582 mm^3
% Tumor growth, AVG [2, 18]: 0%
Tumor volume, AVG [2, 18]: 180.514 mm^3
% Tumor growth [2, 19]: 0%
Tumor volume [2, 19]: 100.979 mm^3 and 154.514 mm^3 and 151.014 mm^3 and 168.003 mm^3 and 255.303 mm^3 and 253.274 mm^3
% Tumor growth, AVG [2, 20]: 106.339%
Tumor volume, AVG [2, 20]: 355.904 mm^3
% Tumor growth [2, 21]: 103.958% and 55.5923% and 228.844% and 138.521% and 84.9035% and 26.2158%
Tumor volume [2, 21]: 205.955 mm^3 and 240.412 mm^3 and 496.599 mm^3 and 400.722 mm^3 and 472.064 mm^3 and 319.672 mm^3
% Tumor growth, AVG [2, 22]: 146.015%
Tumor volume, AVG [2, 22]: 424.47 mm^3
% Tumor growth [2, 23]: 172.578% and 87.9551% and 265.997% and 159.587% and 128.487% and 61.4849%
Tumor volume [2, 23]: 275.247 mm^3 and 290.417 mm^3 and 552.706 mm^3 and 436.115 mm^3 and 583.334 mm^3 and 408.999 mm^3
% Tumor growth, AVG [2, 24]: 196.378%
Tumor volume, AVG [2, 24]: 514.744 mm^3
% Tumor growth [2, 25]: 265.602% and 115.285% and 217.088% and 283.945% and 177.512% and 118.838%
Tumor volume [2, 25]: 369.182 mm^3 and 332.645 mm^3 and 478.846 mm^3 and 645.04 mm^3 and 708.495 mm^3 and 554.259 mm^3
% Tumor growth, AVG [2, 26]: 274.736%
Tumor volume, AVG [2, 26]: 656.818 mm^3
% Tumor growth [2, 27]: 256.941% and 190.731% and 428.695% and 356.714% and 248.463% and 166.876%
Tumor volume [2, 27]: 360.436 mm^3 and 449.22 mm^3 and 798.401 mm^3 and 767.293 mm^3 and 889.635 mm^3 and 675.926 mm^3
% Tumor growth, AVG [2, 28]: 372.557%
Tumor volume, AVG [2, 28]: 841.506 mm^3
% Tumor growth [2, 29]: 349.385% and 221.259% and 495.296% and 524.547% and 433.889% and 210.963%
Tumor volume [2, 29]: 453.785 mm^3 and 496.39 mm^3 and 898.977 mm^3 and 1049.26 mm^3 and 1363.03 mm^3 and 787.588 mm^3
% Tumor growth, AVG [2, 30]: 570.165%
Tumor volume, AVG [2, 30]: 1173.35 mm^3
% Tumor growth [2, 31]: 589.68% and 492.445% and 716.71% and 706.345% and 598.649% and 317.161%
Tumor volume [2, 31]: 696.433 mm^3 and 915.41 mm^3 and 1233.34 mm^3 and 1354.69 mm^3 and 1783.67 mm^3 and 1056.56 mm^3
effect on tumor growth ([2]; ES-2 ovarian cancer, oral once daily 21 days): strong tumor-suppressive effects
fold more potent than GSK-525762 or OTX015 ([3]; A375 cells): about 14 fold
fold more potent than I-BET151 ([3]; A375 cells): about 23 fold
Cellular activity in melanoma cells (A375), alamarBlue ([3]; concentration(nM) 0.21442): 0.8628 and 1.0579
Cellular activity in melanoma cells (A375), alamarBlue ([3]; concentration(nM) 0.31236): 16.3424 and 12.5613
Cellular activity in melanoma cells (A375), alamarBlue ([3]; concentration(nM) 0.4103): 30.3045 and 25.7042
Cellular activity in melanoma cells (A375), alamarBlue ([3]; concentration(nM) 0.6032): 65.3038 and 63.4524
Cellular activity in melanoma cells (A375), alamarBlue ([3]; concentration(nM) 1.2043): 75.3216 and 83.4358
Cellular activity in melanoma cells (A375), alamarBlue ([3]; concentration(nM) 1.8024): 92.8346 and 91.942
Cellular activity in melanoma cells (A375), alamarBlue ([3]; concentration(nM) 2.4): 100.774 and 99.5602
Cellular activity in melanoma cells (A375), alamarBlue ([3]; concentration(nM) 3): 101.341 and 101.79
IC50 ([3]; Homo sapiens, A-375, nM printed in b8, the picture prints no unit, read-out: IC50, cellular activity in A375 (alamarBlue)): 2.46 nM
